Laboratory results taken from patent US20190224201A1, “PHARMACEUTICAL COMPOSITION COMPRISING NEPTINIB OR SALT THEREOF AND METHOD FOR CONTROLLING IMPURITY THEREOF” (SHENZHEN NEPTUNUS PHARMACEUTICAL RESEARCH INSTITUTE CO., …, priority 2016, published 2019).

Legend:
Assay type in all cases: physicochemical
[1] = Risk assessment of the API and excipients compatibility
Excerpt: Level 1 (low risk): maximum single impurity is less than 0.1% and total impurity is less than 0.2%;
Level 2 (medium risk): maximum single impurity is 0.1-0.2% or total impurity is 0.2%-0.4%;
Level 3 (high risk): maximum single impurity is more than 0.2% or total impurity is more than 0.4%.

[2] = Accelerated stability test, detection of impurity A and total impurity by HPLC; details: active ingredient alone, accelerated stability test at 40° C. for 6 months
Excerpt: The method for detecting impurity A and total impurity was shown as follows:
Equipment: Agilent 1260 series;
Column: XBridge Shield RP18 column (100×4.6 mm, 3.5 μm);
Mobile phase A: 0.05 mol/L potassium dihydrogen phosphate solution (adjusted to pH 7.2 with sodium hydroxide solution)-acetonitrile (20:80);
Mobile phase B: 0.05 mol/L potassium dihydrogen phosphate solution (adjusted to pH 7.2 with sodium hydroxide solution)-acetonitrile (40:60);
Detection wavelength: 247 nm;
Column temperature: 30° C.;
Solvent: acetonitrile-water (50:50).

[3] = API and excipients compatibility study (10 days of stress testing of mixed powders)
[4] = Day 10, Illumination (4500 ± 5001x)

With `CCOc1cc2ncnc(Nc3ccc(F)c(Cl)c3)c2cc1NC(=O)/C=C/CN(C)C` [API, (E)-N-(4-((3-chloro-4-fluorophenyl)amino)-7-ethoxyquinazolin-6-yl)-4-(dimethylamino)but-2-enamide] the “Risk level assessment value 60° C.” value ([1]; 60° C., 10 days stress testing) was 1 (Level 1 (low risk): maximum single impurity is less than 0.1% and total impurity is less than 0.2%), the “Risk level assessment value Illumination” value ([1]; Illumination, 10 days stress testing) was 2 (Level 2 (medium risk): maximum single impurity is 0.1-0.2% or total impurity is 0.2%-0.4%) and the “Risk level assessment value RH75%” value ([1]; RH75%, 10 days stress testing) was 1 (Level 1 (low risk): maximum single impurity is less than 0.1% and total impurity is less than 0.2%). The “Risk level assessment value RH92.5%” value ([1]; RH92.5%, 10 days stress testing) was 1 (Level 1 (low risk): maximum single impurity is less than 0.1% and total impurity is less than 0.2%), the “Risk level assessment value Total” value ([1]; sum over RH75%, RH92.5%, 60° C., Illumination) was 5 and the “change in the content of impurities in the active ingredient” value [2] was “no significant change”. For the same compound, the “Maximum single impurity (%)” value ([3]; Day 0) was 0.02%, the “Total impurity (%)” value ([3]; Day 0) was 0.02% and the “Maximum single impurity (%)” value ([3]; Day 10, 60° C. ± 2° C.) was 0.02%. For the same compound, the “Total impurity (%)” value ([3]; Day 10, 60° C. ± 2° C.) was 0.04%, the “Maximum single impurity (%)” value [3, 4] was 0.12% and the “Total impurity (%)” value [3, 4] was 0.14%. For the same compound, the “Maximum single impurity (%)” value ([3]; Day 10, RH75% ± 5%) was 0.02%, the “Total impurity (%)” value ([3]; Day 10, RH75% ± 5%) was 0.02% and the “Maximum single impurity (%)” value ([3]; Day 10, RH92.5% ± 5%) was 0.02%. The “Total impurity (%)” value ([3]; Day 10, RH92.5% ± 5%) was 0.02%.
